From ChEMBL document CHEMBL4311982, “Discovery of novel, potent, isosteviol-based antithrombotic agents” (Eur J Med Chem, 2019)
pKi: −log10 of the molar value.

Columns and labels:
[1] = target: Coagulation factor X (Homo sapiens, UniProt P00742); test: Inhibition of human activated Factor X using S-2765 as substrate incubated for 15 mins followed by substrate addition and measured after 1 hr by chromogenic assay
[2] = organism: Rattus norvegicus; also: test concentration or dose not given here
[3] = Volume of distribution in Wistar rat at 6.6 umol/kg, iv measured upto 24 hrs by LC-MS/MS analysis; type: ADME, organism-based; conditions: in vivo
[4] = Clearance in Wistar rat at 22 umol/kg, po measured upto 24 hrs by LC-MS/MS analysis; type: ADME, organism-based; conditions: in vivo
[5] = Half life in Wistar rat at 22 umol/kg, po measured upto 24 hrs by LC-MS/MS analysis; type: ADME, organism-based; conditions: in vivo
[6] = MRT in Wistar rat at 22 umol/kg, po measured upto 24 hrs by LC-MS/MS analysis; type: ADME, organism-based; conditions: in vivo
[7] = Clearance in Wistar rat at 6.6 umol/kg, iv measured upto 24 hrs by LC-MS/MS analysis; type: ADME, organism-based; conditions: in vivo
[8] = Cmax in Wistar rat at 22 umol/kg, po measured upto 24 hrs by LC-MS/MS analysis; type: ADME, organism-based; design: dose 22 umol/kg, route oral; conditions: in vivo
[9] = Half life in Wistar rat at 6.6 umol/kg, iv measured upto 24 hrs by LC-MS/MS analysis; type: ADME, organism-based; conditions: in vivo
[10] = Volume of distribution in Wistar rat at 22 umol/kg, po measured upto 24 hrs by LC-MS/MS analysis; type: ADME, organism-based; conditions: in vivo
[11] = Oral bioavailability in Wistar rat at 22 umol/kg measured upto 24 hrs by LC-MS/MS analysis; type: ADME, organism-based; conditions: in vivo
[12] = organism: Rattus norvegicus; remark: listed apart in the source; also: test concentration or dose not given here
[13] = AUC (0 to infinity) in Wistar rat at 22 umol/kg, po measured upto 24 hrs by LC-MS/MS analysis; type: ADME, organism-based; design: dose 22 umol/kg, time infinity, route oral; conditions: in vivo
[14] = organism: Rattus norvegicus; remark: listed apart in the source; also: test concentration or dose not given here
[15] = AUC (0 to infinity) in Wistar rat at 6.6 umol/kg, iv measured upto 24 hrs by LC-MS/MS analysis; type: ADME, organism-based; design: dose 6.6 umol/kg, time infinity, route intravenous; conditions: in vivo
[16] = MRT in Wistar rat at 6.6 umol/kg, iv measured upto 24 hrs by LC-MS/MS analysis; type: ADME, organism-based; conditions: in vivo

Chain of Coagulation factor X (P00742 41-179 limits assumed): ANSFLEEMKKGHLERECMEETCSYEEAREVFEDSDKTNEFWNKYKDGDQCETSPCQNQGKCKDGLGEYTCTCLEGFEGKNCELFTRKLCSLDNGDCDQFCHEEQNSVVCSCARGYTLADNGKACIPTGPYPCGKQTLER
Chain of Coagulation factor X (P00742 235-488 limits assumed): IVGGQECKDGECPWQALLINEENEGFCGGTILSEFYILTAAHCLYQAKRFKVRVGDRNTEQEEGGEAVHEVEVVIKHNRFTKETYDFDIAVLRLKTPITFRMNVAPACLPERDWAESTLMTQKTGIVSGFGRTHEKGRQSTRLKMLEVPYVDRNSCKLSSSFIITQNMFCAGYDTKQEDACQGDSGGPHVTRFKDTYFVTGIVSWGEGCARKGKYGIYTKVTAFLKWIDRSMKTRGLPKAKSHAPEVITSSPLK

SMILES	pKi [1]	other results
CCOC(=O)[C@]1(C)CCC[C@@]2(C)[C@@H]3CC[C@@]4(C)C[C@]3(CC[C@@H]21)C/C4=N\OC/C=C/c1cccc(C(F)(F)F)c1	5.31	–
CCOC(=O)[C@]1(C)CCC[C@@]2(C)[C@@H]3CC[C@@]4(C)C[C@]3(CC[C@@H]21)C/C4=N\OCc1c(F)c(F)c(F)c(F)c1F	6.49	–
CCOC(=O)[C@]1(C)CCC[C@@]2(C)[C@@H]3CC[C@@]4(C)C[C@]3(CC[C@@H]21)C/C4=N\OCCN1CCOCC1	6.11	–
CCOC(=O)[C@]1(C)CCC[C@@]2(C)[C@@H]3CC[C@@]4(C)C[C@]3(CC[C@@H]21)C/C4=N\OC/C=C/c1ccc2[nH]ccc2c1	5.33	–
CCOC(=O)c1ccc(CO/N=C2\C[C@]34CC[C@H]5[C@@](C)(CCC[C@@]5(C)C(=O)OCC)[C@@H]3CC[C@@]2(C)C4)o1	5.01	–
CCOC(=O)[C@]1(C)CCC[C@@]2(C)[C@@H]3CC[C@@]4(C)C[C@]3(CC[C@@H]21)C/C4=N\OC/C=C/c1ccc2oc3ccccc3c2c1	4.68	–
CCOC(=O)[C@]1(C)CCC[C@@]2(C)[C@@H]3CC[C@@]4(C)C[C@]3(CC[C@@H]21)C/C4=N\OC/C=C/c1ccc2sccc2c1	6.68	–
CCOC(=O)[C@]1(C)CCC[C@@]2(C)[C@@H]3CC[C@@]4(C)C[C@]3(CC[C@@H]21)C/C4=N\OC/C=C/c1ccc2c(c1)COC2=O	4.68	–
CCOC(=O)[C@]1(C)CCC[C@@]2(C)[C@@H]3CC[C@@]4(C)C[C@]3(CC[C@@H]21)C/C4=N/O	5.58	TT [2]: 18.9 min
CCOC(=O)[C@]1(C)CCC[C@@]2(C)[C@@H]3CC[C@@]4(C)C[C@]3(CC[C@@H]21)C/C4=N\OC/C=C/c1ccc(F)cc1	5.21	–
CCOC(=O)[C@]1(C)CCC[C@@]2(C)[C@@H]3CC[C@@]4(C)C[C@]3(CC[C@@H]21)C/C4=N\OCc1csc2ccc(Cl)cc12	6.29	–
CCOC(=O)[C@]1(C)CCC[C@@]2(C)[C@@H]3CC[C@@]4(C)C[C@]3(CC[C@@H]21)C/C4=N\OCc1ccc(F)cc1	5.36	–
CCOC(=O)[C@]1(C)CCC[C@@]2(C)[C@@H]3CC[C@@]4(C)C[C@]3(CC[C@@H]21)C/C4=N\OC/C=C/c1ccc(C#N)cc1	4.87	–
CCOC(=O)[C@]1(C)CCC[C@@]2(C)[C@@H]3CC[C@@]4(C)C[C@]3(CC[C@@H]21)C/C4=N\OC/C=C/c1ccc(-c2cnco2)cc1	5.71	–
CCOC(=O)[C@]1(C)CCC[C@@]2(C)[C@@H]3CC[C@@]4(C)C[C@]3(CC[C@@H]21)C/C4=N\OC/C=C/c1ccccc1	4.97	–
CCOC(=O)[C@]1(C)CCC[C@@]2(C)[C@@H]3CC[C@@]4(C)C[C@]3(CC[C@@H]21)C/C4=N\OC/C=C/c1ccc([N+](=O)[O-])cc1	5.58	–
C=CCO/N=C1\C[C@]23CC[C@H]4[C@@](C)(CCC[C@@]4(C)C(=O)OCC)[C@@H]2CC[C@@]1(C)C3	5.07	–
CCOC(=O)[C@]1(C)CCC[C@@]2(C)[C@@H]3CC[C@@]4(C)C[C@]3(CC[C@@H]21)C/C4=N\OCc1ccc(C(F)(F)F)cc1	5.57	–
CCOC(=O)[C@]1(C)CCC[C@@]2(C)[C@@H]3CC[C@@]4(C)C[C@]3(CC[C@@H]21)C/C4=N\OC/C=C/c1c[nH]c(C(=O)OC)c1	5.72	–
CCOC(=O)[C@]1(C)CCC[C@@]2(C)[C@@H]3CC[C@@]4(C)C[C@]3(CC[C@@H]21)C/C4=N\OCC1OCCO1	5.79	–
CCOC(=O)[C@]1(C)CCC[C@@]2(C)[C@@H]3CC[C@@]4(C)C[C@]3(CC[C@@H]21)C/C4=N\OCc1c(C)noc1C	5.54	–
CCOC(=O)[C@]1(C)CCC[C@@]2(C)[C@@H]3CC[C@@]4(C)C[C@]3(CC[C@@H]21)C/C4=N\OC/C=C/c1ccc2[nH]c3ccccc3c2c1	4.58	–

SMILES	pKi [1]	other results
CCOC(=O)[C@]1(C)CCC[C@@]2(C)[C@@H]3CC[C@@]4(C)C[C@]3(CC[C@@H]21)C/C4=N\OC/C=C/c1ccc2occc2c1	4.99	–
CCOC(=O)[C@]1(C)CCC[C@@]2(C)[C@@H]3CC[C@@]4(C)C[C@]3(CC[C@@H]21)C/C4=N\OC/C=C/c1cccc2ccccc12	4.92	–
CCOC(=O)[C@]1(C)CCC[C@@]2(C)[C@@H]3CC[C@@]4(C)C[C@]3(CC[C@@H]21)C/C4=N\OC/C=C/c1ccc(CN2CCOCC2)cc1	5.60	–
CCOC(=O)[C@]1(C)CCC[C@@]2(C)[C@@H]3CC[C@@]4(C)C[C@]3(CC[C@@H]21)C/C4=N\OC/C=C/c1ccc2ncccc2c1	5.38	–
CCOC(=O)[C@]1(C)CCC[C@@]2(C)[C@@H]3CC[C@@]4(C)C[C@]3(CC[C@@H]21)C/C4=N\OC1CCOCC1	5.74	–
CCOC(=O)[C@]1(C)CCC[C@@]2(C)[C@@H]3CC[C@@]4(C)C[C@]3(CC[C@@H]21)C/C4=N\OCc1cnc(Cl)s1	5.71	–
CCOC(=O)[C@]1(C)CCC[C@@]2(C)[C@@H]3CC[C@@]4(C)C[C@]3(CC[C@@H]21)C/C4=N\OCc1cc(C)nn1C	5.40	–
CCOC(=O)[C@]1(C)CCC[C@@]2(C)[C@@H]3CC[C@@]4(C)C[C@]3(CC[C@@H]21)C/C4=N\OCc1cc(Cl)ccc1Cl	5.03	–
CCOC(=O)[C@]1(C)CCC[C@@]2(C)[C@@H]3CC[C@@]4(C)C[C@]3(CC[C@@H]21)C/C4=N\OC/C=C/c1ccc(C(C)=O)cc1	5.78	–
CCOC(=O)[C@]1(C)CCC[C@@]2(C)[C@@H]3CC[C@@]4(C)C[C@]3(CC[C@@H]21)CC4=O	5.34	TT [2]: 14.9 min
CCOC(=O)[C@]1(C)CCC[C@@]2(C)[C@@H]3CC[C@@]4(C)C[C@]3(CC[C@@H]21)C/C4=N\OC/C=C/c1ccc(OC(F)(F)F)cc1	5.70	–
CCOC(=O)[C@]1(C)CCC[C@@]2(C)[C@@H]3CC[C@@]4(C)C[C@]3(CC[C@@H]21)C/C4=N\OC/C=C/c1cc(F)c(F)c(F)c1	5.70	–
CCOC(=O)[C@]1(C)CCC[C@@]2(C)[C@@H]3CC[C@@]4(C)C[C@]3(CC[C@@H]21)C/C4=N\OC/C=C/c1ccc2nccnc2c1	5.44	–
CCOC(=O)[C@]1(C)CCC[C@@]2(C)[C@@H]3CC[C@@]4(C)C[C@]3(CC[C@@H]21)C/C4=N\OCc1ccc(Cl)c(F)c1	5.01	–
CCOC(=O)[C@]1(C)CCC[C@@]2(C)[C@@H]3CC[C@@]4(C)C[C@]3(CC[C@@H]21)C/C4=N\OCc1ccc(OC(F)(F)F)cc1	5.99	–
CCOC(=O)[C@]1(C)CCC[C@@]2(C)[C@@H]3CC[C@@]4(C)C[C@]3(CC[C@@H]21)C/C4=N\OCc1cccc(Cl)c1	4.74	–
C[C@@]12CC[C@@H]3[C@@](CC[C@H]4[C@@]3(C)CCC[C@@]4(C)C(=O)O)(C/C1=N/O)C2	5.10	TT [2]: 12.9 min
C[C@@]12CC[C@@H]3[C@@](CC[C@H]4[C@@]3(C)CCC[C@@]4(C)C(=O)O)(C[C@H]1O)C2	4.56	TT [2]: 9.2 min
CCOC(=O)[C@]1(C)CCC[C@@]2(C)[C@@H]3CC[C@@]4(C)C[C@]3(CC[C@@H]21)C[C@H]4O	4.60	TT [2]: 9.4 min
COC(=O)[C@H](c1ccccc1Cl)N1CCc2sccc2C1 [CLOPIDOGREL]	–	TT [2]: 21 min
C[C@@]12CC[C@@H]3[C@@](CC[C@H]4[C@@]3(C)CCC[C@@]4(C)C(=O)O)(CC1=O)C2 [ISOSTEVIOL]	4.87	TT [2]: 17.2 min
O=C(NC[C@H]1CN(c2ccc(N3CCOCC3=O)cc2)C(=O)O1)c1ccc(Cl)s1 [RIVAROXABAN]	–	Vd [3]: 5.5 L; CL/F [4]: 25 mL/min; half-life [5]: 3.7 h; MRT [6]: 5.4 h; clearance [7]: 15 mL/min; Cmax [8]: 1580 ng/mL; half-life [9]: 4.4 h; Vd [10]: 8.1 L; bioavailability [11]: 59.7%; PT [12]: 19.5 s; TT [2]: 23.4 min; AUC(0-inf) [13]: 6980 ng·h/mL; APTT [14]: 21.9 s; AUC(0-inf) [15]: 3510 ng·h/mL; MRT [16]: 6.3 h
